ChEMBL document CHEMBL1201862, “PubChem BioAssay data set” (2004)
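48-hour exposure; five concentrations; linearly interpolated endpoints. GI50 = concentration required for 50% inhibition of growth.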 Activity calls are given as the source filed them. Rule as the data show it: active = GI50 up to about 1.1 µM and inactive = higher.

Key:
Experiment in all cases: growth of human tumour cells (NCI), 48 h
[1] = tested on: EKVX
[2] = tested on: DU-145
[3] = tested on: CAKI-1
[4] = tested on: HCT-15
[5] = tested on: IGROV-1
[6] = tested on: RPMI-8226
[7] = tested on: HCT-116
[8] = tested on: SN12C
[9] = tested on: A549
[10] = tested on: A498
[11] = tested on: KM12
[12] = tested on: SK-MEL-5
[13] = tested on: 786-0
[14] = tested on: RXF 393
[15] = tested on: LOX IMVI
[16] = tested on: TK-10
[17] = tested on: Malme-3M
[18] = tested on: HOP-92
[19] = tested on: OVCAR-5
[20] = tested on: OVCAR-3
[21] = tested on: ACHN
[22] = tested on: MDA-N
[23] = tested on: K562
[24] = tested on: M14
[25] = tested on: OVCAR-8
[26] = tested on: SR
[27] = tested on: SNB-75
[28] = tested on: MDA-MB-435
[29] = tested on: NCI-H23
[30] = tested on: Hs-578T
[31] = tested on: NCI-H226
[32] = tested on: NCI/ADR-RES
[33] = tested on: PC-3
[34] = tested on: HT-29
[35] = tested on: UO-31
[36] = tested on: MOLT-4
[37] = tested on: SK-MEL-2
[38] = tested on: BT-549
[39] = tested on: COLO 205
[40] = tested on: SF-539
[41] = tested on: HOP-62
[42] = tested on: MCF7
[43] = tested on: HCC 2998
[44] = tested on: MDA-MB-231
[45] = tested on: SK-OV-3
[46] = tested on: OVCAR-4
[47] = tested on: SK-MEL-28
[48] = tested on: SNB-19
[49] = tested on: UACC-62
[50] = tested on: NCI-H522
[51] = tested on: CCRF-CEM
[52] = tested on: U-251
[53] = tested on: HL-60
[54] = tested on: UACC-257
[55] = tested on: SF-295
[56] = tested on: SW-620
[57] = tested on: T47D
[58] = tested on: NCI-H460
[59] = tested on: SF-268

Measured: GI50

C[C@@H]1C[C@H](O)[C@]2(O)O[C@@H]3C[C@@]4(C=O)[C@@H](CC=C5[C@@H]4CC[C@]4(C)[C@@H](C6=CC(=O)OC6)CC[C@]54O)C[C@H]3O[C@@H]2O1
17.5 nM: [4]
active: [1] < 10 nM | [2] < 16.3 nM | [3] < 12.5 nM | [5] < 11.8 nM | [6] < 18 nM | [7] 14.3 nM | [8] < 10 nM | [9] < 10.9 nM | [10] < 10 nM | [11] 33.7 nM | [12] < 16.9 nM | [13] 12.4 nM | [14] < 19.6 nM | [15] 17.6 nM | [16] < 10 nM | [17] < 10 nM | [18] 27.7 nM | [19] 95.1 nM | [20] 13.1 nM | [21] < 10 nM | [22] 42 nM | [23] < 23.1 nM | [24] 57.4 nM | [25] < 20.5 nM | [26] < 15 nM | [27] 112 nM | [28] 33.2 nM | [29] 11.8 nM | [30] < 10 nM | [31] < 19.1 nM | [32] < 20.2 nM | [33] 20 nM | [34] < 21.2 nM | [35] < 24.7 nM | [36] < 10 nM | [37] 98 nM | [38] < 15 nM | [39] 98.4 nM | [40] < 16.6 nM | [41] < 12.1 nM | [42] < 18.8 nM | [43] 67.8 nM | [44] 144 nM | [45] 42.6 nM | [46] < 10.6 nM | [47] 128 nM | [48] 218 nM | [49] 44.9 nM | [50] < 10 nM | [51] < 10 nM | [52] < 21.4 nM | [53] 17.1 nM | [54] 70.2 nM | [55] < 19.1 nM | [56] < 22.7 nM | [57] 21.8 nM | [58] < 12.9 nM | [59] 10.3 nM

C=C(CC[C@@H](C)[C@H]1CC[C@H]2[C@@H]3C[C@@H](O)[C@H]4C[C@@H](O)CC[C@]4(CO)[C@H]3CC[C@]12C)C(C)C
2830 nM: [4]
active: [43] 382 nM
inactive: [1] 2100 nM | [2] 3480 nM | [3] 5640 nM | [5] 5180 nM | [6] 5080 nM | [7] 2900 nM | [8] 6110 nM | [9] 4230 nM | [10] 6620 nM | [11] 2090 nM | [12] 8790 nM | [13] 3750 nM | [14] 3320 nM | [15] 3110 nM | [16] 2370 nM | [17] 6490 nM | [18] 8280 nM | [19] 6680 nM | [20] 2520 nM | [21] 5810 nM | [22] 8490 nM | [23] 1490 nM | [24] 6970 nM | [25] 5470 nM | [26] 2710 nM | [27] 8320 nM | [28] 7450 nM | [29] 5750 nM | [30] 6180 nM | [31] 9290 nM | [32] 4490 nM | [33] 4940 nM | [34] 1980 nM | [35] 3420 nM | [36] 3300 nM | [37] 7330 nM | [38] 8090 nM | [39] 7710 nM | [40] 9750 nM | [41] 7570 nM | [42] 2670 nM | [44] 4170 nM | [45] 9100 nM | [46] 6840 nM | [47] 4100 nM | [48] 7980 nM | [49] 8150 nM | [50] 5240 nM | [51] 3560 nM | [52] 6440 nM | [53] 6340 nM | [54] 7460 nM | [55] 9120 nM | [56] 5980 nM | [57] 1790 nM | [58] 2180 nM | [59] 6350 nM
